In patent US20090253669A1, “Substituted Sulfonamide Compounds” (GRUENENTHAL GmbH, priority 2008, published 2009):

Experiments:
[1] = molecular target: T1, human B1R receptor (hB1R) (Homo sapiens, UniProt P46663); assay: FLIPR Ca2+ assay on hB1R-transfected CHO K1 cells, antagonistic action; assay type: cell-based; conditions: CHO-K1, 10 μM test substance; agonist Lys-Des-Arg9-bradykinin 0.5 nM; % of maximum achievable inhibition; read-out: hB1R [10 μM] % inhibition
T1 construct: host or cells: CHO K1 cells
T1 sequence (P46663 1-353): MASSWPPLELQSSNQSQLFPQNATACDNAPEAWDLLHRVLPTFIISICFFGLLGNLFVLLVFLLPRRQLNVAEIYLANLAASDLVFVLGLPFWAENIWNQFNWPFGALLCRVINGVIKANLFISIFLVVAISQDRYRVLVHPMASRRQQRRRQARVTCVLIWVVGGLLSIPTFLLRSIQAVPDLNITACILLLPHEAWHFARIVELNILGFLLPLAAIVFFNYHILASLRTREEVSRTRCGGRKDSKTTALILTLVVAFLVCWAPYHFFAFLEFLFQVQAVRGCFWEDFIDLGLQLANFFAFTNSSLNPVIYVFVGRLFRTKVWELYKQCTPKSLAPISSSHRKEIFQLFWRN

[2] = molecular target: T2, B1R receptor of the rat (rB1R) (Rattus norvegicus, UniProt P97583); assay: FLIPR Ca2+ assay on rB1R-transfected CHO K1 cells, antagonistic action; assay type: cell-based; conditions: CHO-K1, 10 μM test substance; agonist Des-Arg9-bradykinin 100 nM; % of maximum achievable inhibition; read-out: rB1R [10 μM] % inhibition
T2 construct: host or cells: CHO K1 cells
T2 sequence (P97583 1-337): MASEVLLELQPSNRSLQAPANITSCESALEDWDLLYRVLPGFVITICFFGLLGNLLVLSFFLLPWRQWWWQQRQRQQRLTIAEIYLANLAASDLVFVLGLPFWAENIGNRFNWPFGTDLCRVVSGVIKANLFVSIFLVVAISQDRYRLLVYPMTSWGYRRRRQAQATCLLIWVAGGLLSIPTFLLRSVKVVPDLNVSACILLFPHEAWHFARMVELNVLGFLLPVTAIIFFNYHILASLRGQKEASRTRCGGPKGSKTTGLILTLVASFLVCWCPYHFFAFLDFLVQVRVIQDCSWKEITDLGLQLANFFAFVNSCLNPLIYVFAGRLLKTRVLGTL

`CN1CCN(C2(CCc3ccccc3)CCN(C(=O)CC(NS(=O)(=O)c3ccc4ccccc4c3)c3ccccc3)CC2)CC1` (centres unmarked) [Compound 55, N-(3-(4-(4-methylpiperazin-1-yl)-4-phenethylpiperidin-1-yl)-3-oxo-1-phenylpropyl)naphthalene-2-sulfonamide] gave an inhibition at 10 µM [1] of 99% and an inhibition at 10 µM [2] of 100%.
`COc1cc(C)c(S(=O)(=O)N(C)CCOCC(=O)NC2CCC(Cc3ccccc3)(N3CCCCCC3)CC2)c(C)c1` (centres unmarked) [Compound 20, N-(4-(azepan-1-yl)-4-benzylcyclohexyl)-2-(2-(4-methoxy-N,2,6-trimethylphenylsulfonamido)ethoxy)acetamide] was tested, and the inhibition at 10 µM [1] was 91% and the inhibition at 10 µM [2] was 69%.
Molecule `COc1cc(C)c(S(=O)(=O)N(C)CCOCC(=O)NC2CCC(Cc3ccccc3)(N3CCCC3)CC2)c(C)c1` (centres unmarked) [Compound 170, N-(4-benzyl-4-(pyrrolidin-1-yl)cyclohexyl)-2-(2-(4-methoxy-N,2,6-trimethylphenylsulfonamido)ethoxy)acetamide] has an inhibition at 10 µM [1] of 104% and an inhibition at 10 µM [2] of 84%.
For `CN1CCN(C2(c3ccc(F)cc3)CCN(C(=O)COCC3CCc4ccccc4N3S(=O)(=O)c3ccc(Cl)c(Cl)c3)CC2)CC1` (centres unmarked) [Compound 126, 2-((1-(3,4-dichlorophenylsulfonyl)-1,2,3,4-tetrahydroquinolin-2-yl)methoxy)-1-(4-(4-fluorophenyl)-4-(4-methylpiperazin-1-yl)piperidin-1-yl)ethanone], the inhibition at 10 µM [1] was 87% and the inhibition at 10 µM [2] was 55%.
`COc1cc(C)c(S(=O)(=O)N(C)CCOCC(=O)NC2CCC(Cc3ccccc3C)(N(C)C)CC2)c(C)c1` (centres unmarked) [Compound 10, N-(4-(dimethylamino)-4-(2-methylbenzyl)cyclohexyl)-2-(2-(4-methoxy-N,2,6-trimethylphenylsulfonamido)ethoxy)acetamide] was tested, and the inhibition at 10 µM [1] was 103% and the inhibition at 10 µM [2] was 95%.
With `COc1cc(C)c(S(=O)(=O)N(C)CCOCC(=O)N2CCC(c3ccccc3)(N(C)C)CC2)c(C)c1` [Compound 54, N-(2-(2-(4-(dimethylamino)-4-phenylpiperidin-1-yl)-2-oxoethoxy)ethyl)-4-methoxy-N,2,6-trimethylbenzenesulfonamide] the inhibition at 10 µM [1] was 103% and the inhibition at 10 µM [2] was 100%.
Work on `CN(C)C1(Cc2ccccc2)CCN(C(=O)CC2CCCCN2S(=O)(=O)c2cccc(C(F)(F)F)c2)CC1` (centres unmarked) [Compound 97, 1-(4-benzyl-4-(dimethylamino)piperidin-1-yl)-2-(1-(3-(trifluoromethyl)phenylsulfonyl)piperidin-2-yl)ethanone] yielded an inhibition at 10 µM [1] of 102% and an inhibition at 10 µM [2] of 91%.
Molecule `O=C(CC(NS(=O)(=O)c1ccc2ccccc2c1)c1ccccc1)N1CCC(c2ccccc2)(N2CCN(c3ccncc3)CC2)CC1` (centres unmarked) [Compound 98, N-(3-oxo-1-phenyl-3-(4-phenyl-4-(4-(pyridin-4-yl)piperazin-1-yl)piperidin-1-yl)propyl)naphthalene-2-sulfonamide] has an inhibition at 10 µM [1] of 72% and an inhibition at 10 µM [2] of 91%.
Molecule `CN(CCCC1CCC(c2ccccc2)(N2CCCC2)CC1)C(=O)COCC1CCc2ccccc2N1S(=O)(=O)c1ccc(Cl)c(Cl)c1` (centres unmarked) [Compound 133, 2-((1-(3,4-dichlorophenylsulfonyl)-1,2,3,4-tetrahydroquinolin-2-yl)methoxy)-N-methyl-N-(3-(4-phenyl-4-(pyrrolidin-1-yl)cyclohexyl)propyl)acetamide] has an inhibition at 10 µM [1] of 92% and an inhibition at 10 µM [2] of 42%.
Molecule `CN(CC1CCC(c2ccccc2)(N2CCCC2)CC1)C(=O)CC1CCCCN1S(=O)(=O)c1cccc(C(F)(F)F)c1` (centres unmarked) [Compound 33, N-methyl-N-((4-phenyl-4-(pyrrolidin-1-yl)cyclohexyl)methyl)-2-(1-(3-(trifluoromethyl)phenylsulfonyl)piperidin-2-yl)acetamide] has an inhibition at 10 µM [1] of 94% and an inhibition at 10 µM [2] of 101%.
